From patent publication US10174035B2, “6-morpholinyl-2-pyrazolyl-9H-purine derivatives and their use as PI3K inhibitors” (Daiichi Sankyo Company, Limited, priority 2015, dated 2019)
Read-outs that look alike come from different tables or passages of the source.

Legend:
[1] = biological target: recombinant PI3K δ enzyme (Homo sapiens (Human), UniProt O00329); experiment: In vitro enzyme assay (Kinase-Glo luminescent kinase assay), PI3Kδ; type: biochemical
How it was run: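 Each recombinant human PI3K isoform at 2.29 μg/mL with 60 μM PIP2 and 10 μM ATP in HEPES pH 7.4, NaCl, CHAPS, MgCl2, DTT, 2 hours at room temperature. Remaining ATP read by Kinase-Glo luminescence relative to no-enzyme blanks.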

[2] = biological target: PI3Kβ (Homo sapiens (Human), UniProt P42338); experiment: In vitro enzyme assay (Kinase-Glo), selectivity, PI3Kβ; type: biochemical; conditions: enzyme 2.29 μg/mL; ATP 10 μM; PIP2 60 μM; 2 hours
Experimental: (§1) The Kinase-Glo luminescent kinase assay kit (from Promega) was used to measure kinase activity. In this assay, amount of ATP remaining in solution following a kinase reaction is measured. The effect of compounds on PI3Kδ inhibition was carried out by adding 2.29 μg/ml of recombinant PI3K δ enzyme (Proteros, Germany) to reaction mixture containing assay buffer (50 mM HEPES, pH 7.4, 50 mM NaCl, 0.05% CHAPS) supplemented with 10 mM MgCl2, 5 mM DTT, 60 μM Phosphatidyl inositol bisphosphate (PIP2) and 10 μM ATP in the absence or presence of different concentrations of the compounds in a final volume of 15 μl/well, in a 384 well plate. The reaction mixture was incubated for 2 hours at room temperature. At the end of incubation period the equal volume of Kinase-Glo plus (Promega, V3772), was added per well and the luminescence was measured after incubating for 10 minutes at room temperature in dark. Results were calculated by measuring the luminescence units of test samples to blanks containing no enzyme.
(§2) The compounds of the present invention were tested for their selectivity for PI3Kδ over PI3Kα, PI3Kβ and PI3Kγ following the above assay using specific recombinant enzymes (Proteros, Germany) for each kinase. Assay condition of kinase assay (PI3Kα, PI3Kβ, PI3Kγ and PI3Kδ) was as follows. Enzyme: 2.29 μg/mL; ATP: 10 μM; PIP2 substrate: 60 μM and Reaction Time: 2 hours.

[3] = biological target: PI3Kα (Homo sapiens (Human), UniProt P42336); experiment: In vitro enzyme assay (Kinase-Glo), selectivity, PI3Kα; type: biochemical; conditions: enzyme 2.29 μg/mL; ATP 10 μM; PIP2 60 μM; 2 hours
Experimental: as §1, §2

[4] = tested on: IFN-γ release in mouse splenocytes; experiment: Phytohaemagglutinin (PHA)-induced interferon (IFN)-gamma release in mouse splenocytes; set-up: species or system C57BL/6 mouse; conditions: Splenocyte, PHA (10 μg/ml) for 48 hours, IFN-γ by ELISA, read-out: Cell Based IC50
Experimental: Effect of compounds on mitogen-induced IFN-γ release in mouse splenocytes was used to evaluate their potency in cell-based assay system [Blood (2010) 115: 2203-2213; Current Protocols in Immunology (2004) 3.12.1-3.12.20].
Mouse splenocytes were obtained from the spleen of a C57BL/6 mouse and plated at a density of 0.25 million cells/well in a 96 well tissue culture plate. The effect of the compounds to inhibit IFN-γ release was evaluated by treating the splenocytes with various concentrations of the test compounds followed by stimulation with PHA (10 μg/ml) for 48 hours. The IFN-γ release in the cell culture supernatant was quantified by ELISA as per the manufacturer's protocol (BD Biosciences, #555138).

[5] = biological target: PI3Kγ (Homo sapiens (Human), UniProt P48736); experiment: In vitro enzyme assay (Kinase-Glo), selectivity, PI3Kγ; type: biochemical; conditions: enzyme 2.29 μg/mL; ATP 10 μM; PIP2 60 μM; 2 hours
Experimental: The Kinase-Glo luminescent kinase assay kit (from Promega) was used to measure kinase activity. In this assay, amount of ATP remaining in solution following a kinase reaction is measured. […] The reaction mixture was incubated for 2 hours at room temperature. At the end of incubation period the equal volume of Kinase-Glo plus (Promega, V3772), was added per well and the luminescence was measured after incubating for 10 minutes at room temperature in dark. Results were calculated by measuring the luminescence units of test samples to blanks containing no enzyme.
The compounds of the present invention were tested for their selectivity for PI3Kδ over PI3Kα, PI3Kβ and PI3Kγ following the above assay using specific recombinant enzymes (Proteros, Germany) for each kinase. Assay condition of kinase assay (PI3Kα, PI3Kβ, PI3Kγ and PI3Kδ) was as follows.

[6] = enzyme 2.29 μg/mL, ATP 10 μM, PIP2 60 μM, 2 hours

PI3Kα, sequence (P42336 whole entry, species assumed): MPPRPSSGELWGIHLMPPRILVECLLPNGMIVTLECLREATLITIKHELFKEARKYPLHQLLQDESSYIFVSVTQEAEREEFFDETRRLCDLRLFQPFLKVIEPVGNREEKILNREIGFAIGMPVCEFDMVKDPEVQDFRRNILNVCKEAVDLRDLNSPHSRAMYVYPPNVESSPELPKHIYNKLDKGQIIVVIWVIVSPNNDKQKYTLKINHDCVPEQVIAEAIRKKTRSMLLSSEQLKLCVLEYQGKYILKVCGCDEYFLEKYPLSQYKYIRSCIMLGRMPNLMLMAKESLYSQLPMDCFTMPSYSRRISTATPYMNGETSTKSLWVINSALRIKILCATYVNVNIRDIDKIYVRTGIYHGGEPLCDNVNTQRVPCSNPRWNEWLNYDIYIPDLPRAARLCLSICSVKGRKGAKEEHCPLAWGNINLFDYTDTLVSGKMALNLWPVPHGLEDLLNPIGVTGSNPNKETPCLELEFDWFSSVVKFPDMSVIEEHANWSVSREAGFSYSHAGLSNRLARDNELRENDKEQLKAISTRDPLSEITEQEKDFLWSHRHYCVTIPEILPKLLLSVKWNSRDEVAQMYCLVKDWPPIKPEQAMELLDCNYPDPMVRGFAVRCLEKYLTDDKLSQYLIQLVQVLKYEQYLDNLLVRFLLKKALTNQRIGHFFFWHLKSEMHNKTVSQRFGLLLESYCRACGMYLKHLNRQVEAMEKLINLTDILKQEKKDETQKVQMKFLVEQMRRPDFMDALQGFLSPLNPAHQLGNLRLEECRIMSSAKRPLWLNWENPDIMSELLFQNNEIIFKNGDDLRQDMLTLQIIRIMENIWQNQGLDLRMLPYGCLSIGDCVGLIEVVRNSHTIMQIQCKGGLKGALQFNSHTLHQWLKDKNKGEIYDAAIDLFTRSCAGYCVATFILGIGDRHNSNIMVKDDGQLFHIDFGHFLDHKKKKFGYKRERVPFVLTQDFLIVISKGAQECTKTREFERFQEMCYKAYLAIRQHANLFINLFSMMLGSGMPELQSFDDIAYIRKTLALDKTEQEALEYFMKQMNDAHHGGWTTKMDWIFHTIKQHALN
PI3Kα, sequence (P27986 whole entry partner, species assumed): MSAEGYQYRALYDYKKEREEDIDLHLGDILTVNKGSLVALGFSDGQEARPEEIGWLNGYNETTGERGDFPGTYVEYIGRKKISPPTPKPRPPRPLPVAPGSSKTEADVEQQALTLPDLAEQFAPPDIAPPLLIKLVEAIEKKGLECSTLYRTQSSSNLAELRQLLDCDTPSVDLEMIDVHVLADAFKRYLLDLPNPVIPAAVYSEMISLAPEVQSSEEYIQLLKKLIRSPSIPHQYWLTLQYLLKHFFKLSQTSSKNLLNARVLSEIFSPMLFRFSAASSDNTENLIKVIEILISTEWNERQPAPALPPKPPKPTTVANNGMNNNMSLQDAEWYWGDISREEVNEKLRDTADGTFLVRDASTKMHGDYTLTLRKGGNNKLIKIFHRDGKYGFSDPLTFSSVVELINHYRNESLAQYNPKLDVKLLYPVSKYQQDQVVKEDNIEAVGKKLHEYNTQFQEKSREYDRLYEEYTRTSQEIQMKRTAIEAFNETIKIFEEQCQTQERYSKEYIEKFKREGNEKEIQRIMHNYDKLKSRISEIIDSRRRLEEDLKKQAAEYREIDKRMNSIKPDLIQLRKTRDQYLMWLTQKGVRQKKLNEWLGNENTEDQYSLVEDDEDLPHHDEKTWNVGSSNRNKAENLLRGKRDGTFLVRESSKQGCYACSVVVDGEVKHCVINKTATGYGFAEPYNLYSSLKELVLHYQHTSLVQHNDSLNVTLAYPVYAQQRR
recombinant PI3K δ enzyme, sequence (O00329 whole entry, species assumed, canonical isoform): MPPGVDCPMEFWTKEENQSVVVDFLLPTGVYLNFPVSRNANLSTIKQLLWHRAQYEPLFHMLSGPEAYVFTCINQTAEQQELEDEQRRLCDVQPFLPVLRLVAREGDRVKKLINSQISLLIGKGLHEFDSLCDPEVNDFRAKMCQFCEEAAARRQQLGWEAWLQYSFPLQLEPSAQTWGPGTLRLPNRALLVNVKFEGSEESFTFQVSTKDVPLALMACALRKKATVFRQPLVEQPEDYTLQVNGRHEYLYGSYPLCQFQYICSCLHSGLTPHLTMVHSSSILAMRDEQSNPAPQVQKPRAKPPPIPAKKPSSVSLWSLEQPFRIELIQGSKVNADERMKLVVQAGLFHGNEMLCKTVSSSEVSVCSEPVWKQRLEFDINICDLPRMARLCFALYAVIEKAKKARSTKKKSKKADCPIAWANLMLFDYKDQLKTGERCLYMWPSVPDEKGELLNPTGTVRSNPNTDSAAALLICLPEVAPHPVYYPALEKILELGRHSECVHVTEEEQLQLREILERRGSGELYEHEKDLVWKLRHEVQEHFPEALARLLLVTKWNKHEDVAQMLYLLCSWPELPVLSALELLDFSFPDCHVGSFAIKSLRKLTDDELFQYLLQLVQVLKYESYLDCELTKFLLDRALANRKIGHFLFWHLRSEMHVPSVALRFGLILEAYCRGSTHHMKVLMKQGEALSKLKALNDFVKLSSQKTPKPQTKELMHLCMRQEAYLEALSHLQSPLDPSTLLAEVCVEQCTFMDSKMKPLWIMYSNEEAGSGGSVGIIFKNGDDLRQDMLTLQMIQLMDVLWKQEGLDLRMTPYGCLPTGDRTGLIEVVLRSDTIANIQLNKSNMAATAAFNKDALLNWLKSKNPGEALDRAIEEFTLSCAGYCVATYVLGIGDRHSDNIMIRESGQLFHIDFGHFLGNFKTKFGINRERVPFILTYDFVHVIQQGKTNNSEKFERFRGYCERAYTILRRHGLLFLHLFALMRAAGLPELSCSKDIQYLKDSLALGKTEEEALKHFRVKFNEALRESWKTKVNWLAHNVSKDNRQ
recombinant PI3K δ enzyme, sequence (P27986 whole entry partner, species assumed, canonical isoform): as the sequence (P27986 whole entry partner, species assumed) above
PI3Kβ, sequence (P42338 whole entry, species assumed): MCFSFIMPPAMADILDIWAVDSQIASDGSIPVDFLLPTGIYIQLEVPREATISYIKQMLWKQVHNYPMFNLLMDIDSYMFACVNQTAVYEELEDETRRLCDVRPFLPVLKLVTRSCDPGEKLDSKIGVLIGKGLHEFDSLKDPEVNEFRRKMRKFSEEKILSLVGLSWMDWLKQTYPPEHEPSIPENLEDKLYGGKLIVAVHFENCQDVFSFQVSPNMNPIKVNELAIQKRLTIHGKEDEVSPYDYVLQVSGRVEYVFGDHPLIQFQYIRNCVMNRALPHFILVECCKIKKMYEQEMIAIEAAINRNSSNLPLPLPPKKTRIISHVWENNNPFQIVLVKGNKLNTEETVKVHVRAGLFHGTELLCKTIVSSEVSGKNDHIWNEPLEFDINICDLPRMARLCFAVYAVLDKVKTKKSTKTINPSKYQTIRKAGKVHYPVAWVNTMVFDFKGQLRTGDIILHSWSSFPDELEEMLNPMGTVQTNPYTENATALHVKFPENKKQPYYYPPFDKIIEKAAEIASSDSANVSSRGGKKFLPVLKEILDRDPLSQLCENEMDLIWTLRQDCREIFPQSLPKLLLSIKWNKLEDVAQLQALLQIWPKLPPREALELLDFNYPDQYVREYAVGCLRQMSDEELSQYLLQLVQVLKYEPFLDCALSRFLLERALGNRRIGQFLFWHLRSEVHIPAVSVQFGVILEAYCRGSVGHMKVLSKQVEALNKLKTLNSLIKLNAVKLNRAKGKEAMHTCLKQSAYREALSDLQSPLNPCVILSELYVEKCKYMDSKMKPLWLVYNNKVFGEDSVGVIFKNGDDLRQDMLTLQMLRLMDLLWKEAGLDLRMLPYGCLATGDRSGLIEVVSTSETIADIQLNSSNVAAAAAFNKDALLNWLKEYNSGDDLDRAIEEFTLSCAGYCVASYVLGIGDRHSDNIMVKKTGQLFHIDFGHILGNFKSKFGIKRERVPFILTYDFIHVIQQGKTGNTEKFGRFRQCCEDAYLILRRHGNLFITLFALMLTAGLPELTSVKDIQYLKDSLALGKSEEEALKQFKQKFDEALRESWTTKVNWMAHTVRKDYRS
PI3Kβ, sequence (P27986 whole entry partner, species assumed): as the sequence (P27986 whole entry partner, species assumed) above
PI3Kγ, sequence (P48736 whole entry, species assumed): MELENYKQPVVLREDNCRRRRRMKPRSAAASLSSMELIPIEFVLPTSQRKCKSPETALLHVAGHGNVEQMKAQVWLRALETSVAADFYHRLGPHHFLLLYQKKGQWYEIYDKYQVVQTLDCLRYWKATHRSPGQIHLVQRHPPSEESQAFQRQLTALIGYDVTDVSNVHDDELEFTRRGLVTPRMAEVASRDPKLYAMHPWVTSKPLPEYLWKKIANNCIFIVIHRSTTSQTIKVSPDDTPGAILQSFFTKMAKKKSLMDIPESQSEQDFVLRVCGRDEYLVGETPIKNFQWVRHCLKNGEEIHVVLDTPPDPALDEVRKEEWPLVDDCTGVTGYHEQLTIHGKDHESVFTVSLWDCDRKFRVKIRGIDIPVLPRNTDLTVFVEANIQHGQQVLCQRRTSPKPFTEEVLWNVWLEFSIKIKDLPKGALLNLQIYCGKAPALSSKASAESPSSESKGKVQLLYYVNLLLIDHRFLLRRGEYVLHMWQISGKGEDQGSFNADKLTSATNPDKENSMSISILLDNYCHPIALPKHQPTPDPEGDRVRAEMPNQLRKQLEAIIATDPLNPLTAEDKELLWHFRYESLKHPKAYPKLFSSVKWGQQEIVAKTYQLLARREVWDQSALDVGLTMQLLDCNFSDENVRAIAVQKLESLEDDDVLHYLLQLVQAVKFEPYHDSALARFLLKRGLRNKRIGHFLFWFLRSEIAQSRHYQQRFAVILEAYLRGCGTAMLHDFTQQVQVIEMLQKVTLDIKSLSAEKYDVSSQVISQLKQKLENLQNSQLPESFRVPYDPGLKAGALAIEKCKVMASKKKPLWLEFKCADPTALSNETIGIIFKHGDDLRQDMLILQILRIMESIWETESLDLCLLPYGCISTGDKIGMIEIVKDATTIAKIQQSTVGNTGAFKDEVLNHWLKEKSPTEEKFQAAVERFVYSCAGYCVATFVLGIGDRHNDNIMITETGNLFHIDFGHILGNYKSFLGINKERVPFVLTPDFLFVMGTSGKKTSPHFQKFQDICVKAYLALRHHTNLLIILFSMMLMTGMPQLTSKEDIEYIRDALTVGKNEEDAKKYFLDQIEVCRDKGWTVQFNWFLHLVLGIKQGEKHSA

SMILES | IC50 [1] [nM] | IC50 [1, 6] [nM] | IC50 [2] [µM] | IC50 [3] [nM] | IC50 [4] [nM] | IC50 [5] [nM]
Cn1cc(-c2nc(N3CCOCC3)c3nc(C(=O)N4CCN(C(C)(C)C(N)=O)CC4)[nH]c3n2)cn1 [compound 10, 2-Methyl-2-(4-{[2-(1-methyl-1H-pyrazol-4-yl)-6-(morpholin-4-yl)-9H-purin-8-yl]carbonyl}piperazin-1-yl)propanamide] | – | – | – | – | 270 | –
COCCNC(=O)c1nc2c(N3CCOCC3)nc(-c3cnn(C)c3)nc2[nH]1 [compound 52, N-(2-Methoxyethyl)-2-(1-methyl-1H-pyrazol-4-yl)-6-(morpholin-4-yl)-9H-purine-8-carboxamide] | 231 | – | – | – | – | –
Cn1cc(-c2nc(N3CCOCC3)c3nc(C(=O)NCCN4CCOCC4)[nH]c3n2)cn1 [compound 2, 2-(1-Methyl-1H-pyrazol-4-yl)-6-(morpholin-4-yl)-N-[2-(morpholin-4-yl)ethyl]-9H-purine-8-carboxamide] | 48 | – | – | – | – | –
Cn1cc(-c2nc(N3CCOCC3)c3nc(C(=O)NC4CCCCC4)[nH]c3n2)cn1 [compound 33, N-cyclohexyl-2-(1-methyl-1H-pyrazol-4-yl)-6-(morpholin-4-yl)-9H-purine-8-carboxamide] | 366 | – | – | – | – | –
Cn1cc(-c2nc(N3CCOCC3)c3nc(C(=O)N4CCC(N5CCOCC5=O)CC4)[nH]c3n2)cn1 [compound 7, 4-(1-{[2-(1-Methyl-1H-pyrazol-4-yl)-6-(morpholin-4-yl)-9H-purin-8-yl]carbonyl}piperidin-4-yl)morpholin-3-one] | 42 | – | – | – | – | –
CC(=O)NC1CCN(C(=O)c2nc3c(N4CCOCC4)nc(-c4cnn(C)c4)nc3[nH]2)CC1 [compound 26, N-(1-{[2-(1-methyl-1H-pyrazol-4-yl)-6-(morpholin-4-yl)-9H-purin-8-yl]carbonyl}piperidin-4-yl)acetamide] | 101 | – | – | – | – | –
Cn1cc(-c2nc(N3CCOCC3)c3nc(C(=O)NCC4CCCCC4)[nH]c3n2)cn1 [compound 36, N-(Cyclohexylmethyl)-2-(1-methyl-1H-pyrazol-4-yl)-6-(morpholin-4-yl)-9H-purine-8-carboxamide] | 15 | – | – | – | – | –
Cn1cc(-c2nc(N3CCOCC3)c3nc(C(=O)N4CC[C@H](O)C4)[nH]c3n2)cn1 [compound 62, [(3S)-3-Hydroxypyrrolidin-1-yl][2-(1-methyl-1H-pyrazol-4-yl)-6-(morpholin-4-yl)-9H-purin-8-yl]methanone] | 61 | – | – | – | – | –
CCn1c(C(=O)N2CCC(N3CCOCC3)CC2)nc2c(N3CCOCC3)nc(-c3cnn(C)c3)nc21 [compound 22, [9-Ethyl-2-(1-methyl-1-pyrazol-4-yl)-6-(morpholin-4-yl)-9H-purin-8-yl][4-(morpholin-4-yl)piperidin-1-yl]methanone] | 368 | – | – | – | – | –

Second part, the compound after the results:

IC50 [1] [nM] | IC50 [1, 6] [nM] | IC50 [2] [µM] | IC50 [3] [nM] | IC50 [4] [nM] | IC50 [5] [nM] | SMILES
17 | 17 | > 10 | > 1000 | 296 | > 1000 | Cn1cc(-c2nc(N3CCOCC3)c3nc(C(=O)NCCCN4CCCC4=O)[nH]c3n2)cn1 [compound 68, 2-(1-Methyl-1H-pyrazol-4-yl)-6-(morpholin-4-yl)-N-[3-(2-oxopyrrolidin-1-yl)propyl]-9H-purine-8-carboxamide]
– | – | 1.15 | > 1000 | 7 | > 1000 | Cc1nn(C)cc1-c1cc(N2CCOCC2)c2nc(C(=O)N3CCC(N4C[C@@H](C)O[C@@H](C)C4)CC3)[nH]c2n1 [compound 113, {4-[cis-2,6-Dimethylmorpholin-4-yl]piperidin-1-yl}[5-(1,3-dimethyl-1H-pyrazol-4-yl)-7-(morpholin-4-yl)-3H-imidazo[4,5-b]pyridin-2-yl]methanone]
18 | – | > 10 | > 1000 | 84 | > 1000 | C[C@@H]1CN(CCCNC(=O)c2nc3c(N4CCOCC4)nc(-c4cnn(C)c4)nc3[nH]2)C[C@H](C)O1 [compound 75, N-{3-[cis-2,6-dimethylmorpholin-4-yl]propyl}-2-(1-methyl-1H-pyrazol-4-yl)-6-(morpholin-4-yl)-9H-purine-8-carboxamide]
19 | 19 | > 10 | > 1000 | 1270 | > 1000 | Cc1nn(C)cc1-c1nc2[nH]c(C(=O)N3CCC(C(N)=O)CC3)nc2c(N2CCOCC2)c1F [compound 85, 1-{[5-(1,3-Dimethyl-1H-pyrazol-4-yl)-6-fluoro-7-(morpholin-4-yl)-3H-imidazo[4,5-b]pyridin-2-yl]carbonyl}piperidine-4-carboxamide]
18 | 18 | > 10 | > 1000 | 333 | > 1000 | O=C(c1nc2c(N3CCOCC3)nc(-c3cn[nH]c3)nc2[nH]1)N1CCC2(CC1)COC2 [compound 72, [6-(Morpholin-4-yl)-2-(1H-pyrazol-4-yl)-9H-purin-8-yl](2-oxa-7-azaspiro[3.5]non-7-yl)methanone]
11 | 11 | > 10 | > 1000 | 346 | > 1000 | Cn1cc(-c2nc3[nH]c(C(=O)N4CCN(C(C)(C)C(N)=O)CC4)nc3c(N3CCOCC3)c2F)cn1 [compound 82, 2-(4-{[6-Fluoro-5-(1-methyl-1H-pyrazol-4-yl)-7-(morpholin-4-yl)-3H-imidazo[4,5-b]pyridin-2-yl]carbonyl}piperazin-1-yl)-2-methylpropanamide]
– | – | – | – | 72 | – | Cn1cc(-c2cc(N3CCOCC3)c3nc(C(=O)NCCCN4CCCC4=O)[nH]c3n2)cn1 [compound 116, 5-(1-Methyl-1H-pyrazol-4-yl)-7-(morpholin-4-yl)-N-[3-(2-oxopyrrolidin-1-yl)propyl]-3H-imidazo[4,5-b]pyridine-2-carboxamide]
147 | – | – | – | – | – | Cn1cc(-c2cc(N3CCOCC3)c3nc(C(=O)NCCN4CCOCC4)[nH]c3n2)cn1 [compound 103, 5-(1-Methyl-1H-pyrazol-4-yl)-7-(morpholin-4-yl)-N-[2-(morpholin-4-yl)ethyl]-3H-imidazo[4,5-b]pyridine-2-carboxamide]
31 | – | – | – | – | – | Cc1nn(C)cc1-c1nc2[nH]c(C(=O)N3CCC(N4CCOCC4)CC3)nc2c(N2CCOCC2)c1Cl [compound 91, [6-Chloro-5-(1,3-dimethyl-1H-pyrazol-4-yl)-7-(morpholin-4-yl)-3H-imidazo[4,5-b]pyridin-2-yl][4-(morpholin-4-yl)piperidin-1-yl]methanone]
– | – | > 10 | 986 | 79 | 9770 | C[C@@H]1CN(C2CCN(C(=O)c3nc4c(N5CCOCC5)nc(-c5cn[nH]c5)nc4[nH]3)CC2)C[C@H](C)O1 [compound 65, {4-[cis-2,6-Dimethylmorpholin-4-yl]piperidin-1-yl}[6-(morpholin-4-yl)-2-(1H-pyrazol-4-yl)-9H-purin-8-yl]methanone]
60 | – | – | – | – | – | Cn1cc(-c2nc(N3CCOCC3)c3nc(C(=O)NCCCN4CCCC4=O)n(C)c3n2)cn1 [compound 73, 9-Methyl-2-(1-methyl-1H-pyrazol-4-yl)-6-(morpholin-4-yl)-N-[3-(2-oxopyrrolidin-1-yl)propyl]-9H-purine-8-carboxamide]
36 | – | – | – | – | – | C[C@@H]1CN(C2CN(C(=O)c3nc4c(N5CCOCC5)c(F)c(-c5cnn(C)c5)nc4[nH]3)C2)C[C@H](C)O1 [compound 127, {3-[(2R,6S)-2,6-dimethylmorpholin-4-yl]azetidin-1-yl}[6-fluoro-5-(1-methyl-1H-pyrazol-4-yl)-7-(morpholin-4-yl)-3H-imidazo[4,5-b]pyridin-2-yl]methanone]
